Results reported in patent US8637511B2, “Aminopyrimidines useful as kinase inhibitors” (Vertex Pharmaceuticals Incorporated, priority 2005, dated 2014).
Read-outs that look alike come from different tables or passages of the source.

Assays:
[1] = target: T1, Aurora-2 (Aurora A) (Homo sapiens, UniProt O14965); assay: Aurora-2 (Aurora A) inhibition assay, coupled enzyme; format: biochemical; conditions: read-out: Aurora A kinase Ki value
T1 sequence (O14965 1-403): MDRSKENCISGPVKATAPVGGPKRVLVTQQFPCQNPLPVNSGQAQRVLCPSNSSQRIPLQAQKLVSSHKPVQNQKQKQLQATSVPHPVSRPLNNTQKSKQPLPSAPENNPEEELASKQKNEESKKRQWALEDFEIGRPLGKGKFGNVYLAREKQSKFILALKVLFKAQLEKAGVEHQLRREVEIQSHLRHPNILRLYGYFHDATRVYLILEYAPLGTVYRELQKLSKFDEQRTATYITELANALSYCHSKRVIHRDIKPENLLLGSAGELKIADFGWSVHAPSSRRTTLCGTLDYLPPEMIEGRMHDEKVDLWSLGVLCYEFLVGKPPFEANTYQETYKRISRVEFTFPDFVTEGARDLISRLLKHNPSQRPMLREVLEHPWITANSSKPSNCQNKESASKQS
Summary of the method: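 These rates came from NADH consumption coupled through pyruvate kinase and lactate dehydrogenase (100 mM Hepes pH 7.5, 10 mM MgCl2, 300 μM NADH). Aurora-2 was present at 40 nM, and the reaction ran at 30 °C after a 10 min preincubation.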

[2] = target: T2, FLT-3 (Homo sapiens, UniProt P36888); assay: FLT-3 inhibition assay, radiometric filter-binding; format: biochemical
T2 sequence (P36888 27-993): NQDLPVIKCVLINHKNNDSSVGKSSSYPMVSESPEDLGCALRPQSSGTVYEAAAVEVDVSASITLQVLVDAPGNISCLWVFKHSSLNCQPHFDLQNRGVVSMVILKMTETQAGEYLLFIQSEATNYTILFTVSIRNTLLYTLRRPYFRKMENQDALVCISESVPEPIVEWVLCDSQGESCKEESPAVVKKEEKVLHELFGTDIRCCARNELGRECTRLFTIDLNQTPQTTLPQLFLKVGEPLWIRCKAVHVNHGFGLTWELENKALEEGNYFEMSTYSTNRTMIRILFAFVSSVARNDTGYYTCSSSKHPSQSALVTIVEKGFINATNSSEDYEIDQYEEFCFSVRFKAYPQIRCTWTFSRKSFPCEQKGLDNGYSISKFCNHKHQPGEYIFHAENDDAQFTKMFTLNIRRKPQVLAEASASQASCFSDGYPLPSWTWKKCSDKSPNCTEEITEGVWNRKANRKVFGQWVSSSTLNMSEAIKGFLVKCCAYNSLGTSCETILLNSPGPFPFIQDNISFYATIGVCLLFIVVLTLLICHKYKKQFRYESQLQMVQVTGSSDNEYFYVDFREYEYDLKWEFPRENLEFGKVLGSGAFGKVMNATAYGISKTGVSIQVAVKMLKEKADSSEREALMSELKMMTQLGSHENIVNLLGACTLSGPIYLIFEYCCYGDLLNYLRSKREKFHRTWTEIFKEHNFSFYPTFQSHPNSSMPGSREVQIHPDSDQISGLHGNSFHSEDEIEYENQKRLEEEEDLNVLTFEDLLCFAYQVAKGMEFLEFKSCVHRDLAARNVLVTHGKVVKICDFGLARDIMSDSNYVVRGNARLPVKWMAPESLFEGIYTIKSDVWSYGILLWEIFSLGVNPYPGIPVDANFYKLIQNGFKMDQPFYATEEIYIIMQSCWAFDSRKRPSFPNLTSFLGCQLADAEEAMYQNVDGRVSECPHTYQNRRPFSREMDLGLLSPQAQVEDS

[3] = test system: Colo205 cells; assay: Analysis of cell proliferation and viability; format: cell-based; conditions: Homo sapiens, COLO 205, Colo205 cells, read-out: IC50 value

| Structure (SMILES) | Ki [1] | Ki [2] | IC50 ([3]; incubated for 72 hours) | IC50 ([3]; incubated for 96 hours) | Ki ([2]; read-out: FLT-3 Ki value) |
| --- | --- | --- | --- | --- | --- |
| Cc1cc(Nc2cc(N3CC(O)(C4CC4)C3)nc(Sc3cc(F)c4nc(C)ccc4c3)n2)[nH]n1 [Compound 172] | ≤ 1 nM | 50 to 150 nM | ≤ 30 nM |  |  |
| Cc1cc(Nc2cc(N3CC(C)(O)C3)nc(Sc3ccc(NC(=O)c4ccccc4Cl)cc3)n2)[nH]n1 [Compound 50] | ≤ 1 nM | ≤ 50 nM | ≤ 30 nM | ≤ 50 nM |  |
| Cc1cc(Nc2cc(N3CC(OC(C)C)C3)nc(Sc3ccc(NC(=O)c4ccccc4Cl)cc3)n2)n[nH]1 [Compound 38] | ≤ 1 nM | 150 to 1000 nM |  | ≤ 50 nM |  |
| CCOC1CN(c2cc(Nc3cc(C)[nH]n3)nc(Sc3ccc(NC(=O)c4ccccc4Cl)cc3)n2)C1 [Compound 37] | ≤ 1 nM | 50 to 150 nM |  | 50 to 1000 nM |  |
| CCC(=O)Nc1ccc(Sc2nc(Nc3cc(C)n[nH]3)cc(N3CC(N4CCOCC4)C3)n2)cc1 [Compound 68] | ≤ 1 nM |  |  | 50 to 1000 nM | 50 to 150 nM |
| Cc1cc(Nc2cc(N3CC(F)(C4CC4)C3)nc(Sc3ccc(NC(=O)CN(C)C)cc3)n2)[nH]n1 [Compound 152] | ≤ 1 nM | 150 to 1000 nM | 30 to 200 nM |  |  |
| Cc1cc(Nc2cc(N3CC(C)(F)C3)nc(Sc3ccc(NC(=O)CC(F)(F)F)cc3)n2)n[nH]1 [Compound 168, N-(4-(4-(5-methyl-1H-pyrazol-3-ylamino)-6-(3-fluoro-3-methylazetidin-1-yl)pyrimidin-2-ylthio)phenyl)-3,3,3-trifluoropropanamide] | ≤ 1 nM | ≤ 50 nM | 30 to 200 nM |  |  |
| CCC(=O)Nc1ccc(Sc2nc(Nc3cc(C)n[nH]3)cc(N3CC(OC(C)(C)C)C3)n2)cc1 [Compound 67] | ≤ 1 nM |  |  | 50 to 1000 nM | 50 to 150 nM |
| Cc1cc(Nc2cc(N3CC(O)(C4CC4)C3)nc(Sc3ccc(NC(=O)C4CC4)c(F)c3)n2)[nH]n1 [Compound 109] | ≤ 1 nM |  |  | 50 to 1000 nM | ≤ 50 nM |
| Cc1cc(Nc2cc(N3CC(O)(C4CC4)C3)nc(Sc3ccc4nc(C(F)(F)F)ccc4c3)n2)[nH]n1 [Compound 186] | ≤ 1 nM | 50 to 150 nM | 30 to 200 nM |  |  |
| Cc1cc(Nc2cc(N3CC(N4CC[C@H](F)C4)C3)nc(Sc3ccc(NC(=O)CC(F)(F)F)cc3)n2)[nH]n1 [Compound 185] | ≤ 1 nM | 50 to 150 nM | ≤ 30 nM |  |  |
| CCC(=O)Nc1ccc(Sc2nc(Nc3cc(C)n[nH]3)cc(N3CC(OC)(C(C)(C)C)C3)n2)cc1 [Compound 90] | ≤ 1 nM | ≤ 50 nM |  | ≤ 50 nM |  |
| CC(C)(C)c1cc(Nc2cc(N3CCC3)nc(Sc3ccc(NC(=O)c4ccccc4Cl)cc3)n2)n[nH]1 [Compound 69] |  | 150 to 1000 nM |  |  |  |
| Cc1cc(Nc2cc(N3CC(O)(C4CC4)C3)nc(Sc3ccc4nc(C(F)(F)F)n(C)c4c3)n2)[nH]n1 [Compound 155] | ≤ 1 nM | 50 to 150 nM |  | ≤ 50 nM |  |
| Cc1cc(Nc2cc(N3CC(C)(C(C)(C)F)C3)nc(Sc3ccc(NC(=O)CC(F)(F)F)cc3)n2)[nH]n1 [Compound 183] | ≤ 1 nM | ≤ 50 nM | ≤ 30 nM |  |  |
| CCC(=O)Nc1ccc(Sc2nc(Nc3cc(C)n[nH]3)cc(N3CC(C)(N4CCOCC4)C3)n2)cc1 [Compound 88] | ≤ 1 nM | ≤ 50 nM |  | ≤ 50 nM |  |
| Cc1cc(Nc2cc(N3CC(OC(=O)CN(C)C)(C4CC4)C3)nc(Sc3ccc(NC(=O)C4CC4)cc3)n2)n[nH]1 [Compound 119] | ≤ 1 nM |  | 30 to 200 nM |  | ≤ 50 nM |
| Cc1cnc(Nc2cc(N3CC(F)(C4CC4)C3)nc(Oc3ccc(NC(=O)CC(F)(F)F)cc3)n2)s1 [Compound 181] | ≤ 1 nM | ≤ 50 nM | 30 to 200 nM |  |  |

| Structure (SMILES) | Ki [1] | Ki [2] | IC50 ([3]; incubated for 72 hours) | IC50 ([3]; incubated for 96 hours) | Ki ([2]; read-out: FLT-3 Ki value) |
| --- | --- | --- | --- | --- | --- |
| COC1(C)CN(c2cc(Nc3cc(C)n[nH]3)nc(Sc3ccc(NC(=O)c4ccccc4Cl)cc3)n2)C1 [Compound 51] | ≤ 1 nM | 50 to 150 nM | ≤ 30 nM | ≤ 50 nM |  |
| Cc1cc(Nc2cc(N3CCC3)nc(Sc3ccc(NC(=O)c4cnccc4C(F)(F)F)cc3)n2)[nH]n1 [Compound 59] |  | 150 to 1000 nM | > 200 nM | 50 to 1000 nM |  |
| CC(C)=C1CN(c2cc(Nc3cc(C)n[nH]3)nc(Sc3ccc(NC(=O)CC(F)(F)F)cc3)n2)C1 [Compound 184] | ≤ 1 nM | 50 to 150 nM | 30 to 200 nM |  |  |
| Cc1cc(Nc2cc(N3CCC3)nc(Sc3ccc(NC(=O)Cc4ccccc4Cl)cc3)n2)[nH]n1 [Compound 57] | ≤ 1 nM |  |  | 50 to 1000 nM | 150 to 1000 nM |
| CCC(=O)Nc1ccc(Sc2nc(Nc3cc(C)n[nH]3)cc(N3CC4(C3)OCC4(C)C)n2)cc1 [Compound 92] | ≤ 1 nM |  |  | ≤ 50 nM | ≤ 50 nM |
| Cc1cc(Nc2cc(N3CCC3)nc(Sc3ccc(NC(=O)c4ccc(-c5ccccc5)cc4Cl)cc3)n2)[nH]n1 [Compound 83] | ≤ 1 nM |  | 30 to 200 nM |  | 150 to 1000 nM |
| Cc1cc(Nc2cc(N3CC(F)(C4CC4)C3)nc(Sc3ccc(C(=O)NCC(F)(F)F)cc3)n2)[nH]n1 [Compound 205] | ≤ 1 nM | 50 to 150 nM | ≤ 30 nM |  |  |
| Cc1cc(Nc2cc(N3CC(N4CCOCC4)C3)nc(Sc3ccc4nc(CC(F)(F)F)n(C)c4c3)n2)[nH]n1 [Compound 177] | ≤ 1 nM | 150 to 1000 nM | 30 to 200 nM |  |  |
| Cc1cc(Nc2cc(N3CC(N4CCOCC4)C3)nc(Sc3ccc4c(c3)CN(CC(F)(F)F)C4=O)n2)[nH]n1 [Compound 173] | ≤ 1 nM | ≤ 50 nM | 30 to 200 nM |  |  |
| COCc1cc(Nc2cc(N3CCC3)nc(Sc3ccc(NC(=O)c4ccccc4Cl)cc3)n2)n[nH]1 [Compound 82] |  | 150 to 1000 nM |  |  |  |
| CCC(=O)Nc1ccc(Sc2nc(Nc3cc(C)n[nH]3)cc(N3CC(C)(N4CCCC4)C3)n2)cc1 [Compound 89] | ≤ 1 nM |  | ≤ 30 nM | ≤ 50 nM | ≤ 50 nM |
| Cc1cc(Nc2cc(N3CC(C)(C#N)C3)nc(Sc3ccc(NC(=O)CC(F)(F)F)cc3)n2)[nH]n1 [Compound 169] | ≤ 1 nM | ≤ 50 nM | 30 to 200 nM |  |  |
| Cc1cc(Nc2cc(N3CC(F)(C4CC4)C3)nc(Sc3ccc(NC(=O)C4(C)CC4)cc3)n2)[nH]n1 [Compound 203] | ≤ 1 nM |  | 30 to 200 nM |  | 150 to 1000 nM |
| Cc1cc(Nc2cc(N3CC(N4CCCC4)C3)nc(Sc3ccc(NC(=O)CC(F)(F)F)cc3)n2)[nH]n1 [Compound 204] | ≤ 1 nM | 50 to 150 nM | ≤ 30 nM |  |  |
| Cc1cc(Nc2cc(N3CC(F)(C4CC4)C3)nc(Oc3ccc(NC(=O)CC(F)(F)F)cc3)n2)[nH]n1 [Compound 144] | ≤ 1 nM | ≤ 50 nM | ≤ 30 nM |  |  |
| Cc1cc(Nc2cc(N3CC(F)(C4CC4)C3)nc(Sc3ccc(NS(C)(=O)=O)cc3)n2)[nH]n1 [Compound 151] | ≤ 1 nM | ≤ 50 nM | 30 to 200 nM |  |  |
| Cc1cc(Nc2nc(Sc3ccc(NC(=O)CC(F)(F)F)cc3)nc(N3CC(F)(C4CC4)C3)c2F)[nH]n1 [Compound 178] | ≤ 1 nM | 150 to 1000 nM | 30 to 200 nM |  |  |
| Cc1cc(Nc2cc(N3CC(F)(C4CC4)C3)nc(Sc3cnc4ccccc4c3)n2)[nH]n1 [Compound 206] | ≤ 1 nM | ≤ 50 nM | > 200 nM |  |  |
